Experimental data reported in ChEMBL document CHEMBL1201862, “PubChem BioAssay data set” (2004).
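48-hour exposure; five concentrations; linearly interpolated endpoints. At the GI50, growth is halved.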 Calls of active or inactive are those of the source. Rule as the data show it: active = GI50 up to about 1.1 µM and inactive = higher.

Assays:
Experiment in all cases: inhibition of tumour cell growth, NCI panel, 48 h
HOP-18 = tested on: HOP-18
DMS-273 = tested on: DMS-273
LXFL 529 = tested on: LXFL 529
RXF 631 = tested on: RXF 631
DLD-1 = tested on: DLD-1
M19-MEL = tested on: M19-MEL
DMS-114 = tested on: DMS-114
XF498 = tested on: XF498
KM-20L2 = tested on: KM-20L2

| SMILES | GI50 (HOP-18) | GI50 (DMS-273) | GI50 (LXFL 529) | GI50 (RXF 631) | GI50 (DLD-1) | GI50 (M19-MEL) | GI50 (DMS-114) | GI50 (XF498) | GI50 (KM-20L2) |
| --- | --- | --- | --- | --- | --- | --- | --- | --- | --- |
| O=c1c2ccccc2nc(-c2ccccc2)n1NC1OC(CO)C(O)C(O)C1O (configuration not stated) | 1.46 µM (inactive) | > 100 µM (inactive) | > 100 µM (inactive) | > 100 µM (inactive) | > 100 µM (inactive) | > 100 µM (inactive) | > 100 µM (inactive) | > 100 µM (inactive) | > 100 µM (inactive) |
| Clc1ccccc1/C=C/c1cscn1 |  |  | > 100 µM (inactive) |  | > 100 µM (inactive) | > 100 µM (inactive) | > 100 µM (inactive) | > 100 µM (inactive) |  |
| CC(C)CC(N)C(=O)OCN1C(=O)C2C3C=CC(C2C1=O)C1C2C(=O)N(COC(=O)C(N)CC(C)C)C(=O)C2C31 (configuration not stated) | > 100 µM (inactive) | 97.3 µM (inactive) | > 100 µM (inactive) | > 100 µM (inactive) | > 86.7 µM (inactive) |  | > 62.1 µM (inactive) |  | > 100 µM (inactive) |
| O=C1[C@@H]2C(c3c(Cl)cccc3Cl)=NO[C@@H]2C(=O)N1c1ccc(Cc2ccc(N3C(=O)[C@H]4C(c5c(Cl)cccc5Cl)=NO[C@H]4C3=O)cc2)cc1 | > 100 µM (inactive) | > 100 µM (inactive) | > 100 µM (inactive) |  | > 100 µM (inactive) | > 100 µM (inactive) | > 100 µM (inactive) | > 100 µM (inactive) | > 100 µM (inactive) |
| COc1cccc(N2C(=O)[C@H]3CC(C)c4c([nH]c5ccccc45)[C@H]3C2=O)c1 (some centres not stated) |  | 79.4 µM (inactive) | 42.8 µM (inactive) |  | 80.5 µM (inactive) | 86.1 µM (inactive) |  | 55.7 µM (inactive) | > 100 µM (inactive) |
| CC(C)=CCC(OC(=O)C=C(C)C)c1cc(O)c2c(c1O)C(=O)C=CC2=O (configuration not stated) | 3.52 µM (inactive) | 1.98 µM (inactive) |  |  | 0.279 µM (active) | 0.621 µM (active) | 1.05 µM (active) | 0.809 µM (active) | 1.82 µM (inactive) |
| c1cc2[se][se]c3c4cccc5[se][se]c(c(c1)c23)c54 | 0.331 µM (active) | > 100 µM (inactive) | > 100 µM (inactive) |  | > 100 µM (inactive) | > 100 µM (inactive) | > 100 µM (inactive) | > 100 µM (inactive) | > 100 µM (inactive) |
| COc1cc2c(c(OC)c1OC)-c1cccc(=O)cc1C(NC(C)=O)CC2 (configuration not stated) | > 100 µM (inactive) | 0.0509 µM (active) | 0.125 µM (active) |  |  | 0.605 µM (active) | 0.0685 µM (active) | 0.117 µM (active) | 0.12 µM (active) |
| COc1cc(/N=N\c2ccc(OC)c(S(=O)(=O)O)c2)c(C)cc1/N=N\c1ccc(/C=C/c2ccc(/N=[N+](/[O-])c3ccc(/C=C/c4ccc(/N=N/c5cc(C)c(/N=N\c6ccc(OC)c(S(=O)(=O)O)c6)cc5OC)cc4S(=O)(=O)O)c(S(=O)(=O)O)c3)cc2S(=O)(=O)O)c(S(=O)(=O)O)c1 | > 100 µM (inactive) | > 68.1 µM (inactive) |  |  | > 100 µM (inactive) | > 100 µM (inactive) | > 100 µM (inactive) | > 100 µM (inactive) | 95.1 µM (inactive) |
| O=C(O)c1cc(=O)c2cc(C(=O)c3cccs3)c(Cl)c(Cl)c2o1 |  |  | > 100 µM (inactive) |  | > 100 µM (inactive) |  |  |  | > 100 µM (inactive) |
| COc1ccc(COCC(Cn2ccnc2)OCc2ccc(C(=O)O)cc2)cc1 (configuration not stated) |  |  | > 100 µM (inactive) | > 100 µM (inactive) | > 100 µM (inactive) | > 100 µM (inactive) | > 100 µM (inactive) | > 100 µM (inactive) | > 100 µM (inactive) |
| Cc1cc(O)c2c(c1)C[C@@H](O)C1=C2C(=O)c2c(O)ccc(OC3CC(O)C(OC4CC(OC5CCC(OC6CC(O)C(OC7CC(OC8CCC(O)C(C)O8)C(O)C(C)O7)C(C)O6)C(C)O5)C(O)C(C)O4)C(C)O3)c2C1=O (some centres not stated) | 0.0403 µM (active) | 0.0209 µM (active) | 0.0155 µM (active) |  | 0.0173 µM (active) | 0.00411 µM (active) | 0.0144 µM (active) | 0.0247 µM (active) | 0.0461 µM (active) |
